# Measurements as given in patent US7235263B2, “Processes for controlling microbial organic compound production” (Kimberly-Clark Worldwide, Inc., priority 2001, dated 2007).
# Key:
# E. coli (ATCC 8739) = assay: Bacterial yield of facultatively grown E. coli in urine:TSB; assay type: cell-based; settings: Table 6, facultative E. coli in urine:TSB
# Description: Proteus mirabilis (ATCC 29906) were recovered from frozen state by growing the appropriate bacterial coated MicroBank Bead (Pro Lab, Austin Tex.) in 10 mL trypticase soy broth (TSB, Difco, Ann Arbor, Mich.) in a 15 mL sterile loosely tightened screw capped conical tube overnight at 37° C. The tube was held stationary. (E. coli (ATCC 8739), utilized in Example 6 herein, was recovered using the same procedure described herein for Proteus mirabilis). Upon observation of turbidity, the bacterial suspension was checked for purity by isolation plate and Gram stain. Once determined that the isolate was Proteus mirabilis (or E. coli in Example 6), a colony from the isolation plate was transferred to 10 mL of TSB in a 15 mL sterile screw capped conical tube and incubated overnight at 37° C. under facultative conditions. Samples of bacterial suspension resulting from this overnight TSB culture were used to initiate all experiments utilizing Proteus mirabilis bacteria (or E. coli in Example 6).
# The four samples were prepared identically to the four samples in Example 5 with the exception that facultatively grown E. coli was utilized as the bacteria in place of the Proteus mirabilis bacteria. The process for growing facultatively grown E. coli is set forth in Example 1.
# After incubation, each sample was analyzed for EPIOCULAR viability and bacterial cell count as set forth in Example 1. […]
# Proteus mirabilis = assay: Growth of aerobically cultivated Proteus mirabilis in urine:TSB, microtiter serial dilution, optical density; assay type: cell-based; settings: for optical density (bacterial cell growth): 48 hours at 37° C., aerobic, listed as 7 Hr.
# Description: Proteus mirabilis was cultured in TSB as described in Example 1 and transferred to a urine:TSB mixture (9:1) and incubated under aerobic conditions as described in Example 1. […] In a 96-well microtiter plate with a lid, 150 microliters of each 10% solution was introduced into the first and second columns of the wells. Using a multi-channel pipette, 150 microliters of urine:TSB mixture was introduced into each well except the first column. Beginning at the second column of wells, serial dilutions were made by removing 150 microliters from the second column and transferring it to the third column. The mixture was mixed by pipetting up and down three times. The serial dilutions continued across each column of the plate and, after column 11, 150 microliters was discarded leaving column 12 as the 0% solution. Each well was then inoculated with 1 microliter of Proteus mirabilis, except for the negative control rows. One to three drops of anti-fogging solution was place on the plate lids with a cotton applicator, and allowed to air dry. The mixtures were incubated for 48 hours at 37° C. under aerobic conditions. After incubation of the samples, each was analyzed for bacterial cell growth utilizing the optical density procedure as set forth in Example 1.
substance,measurement,setting,value
mannitol peroxide,Bacterial Yields,E. coli (ATCC 8739); 5% MP,2.14E+9 CFU/mL
same,Bacterial Yields,E. coli (ATCC 8739); 10% MP,4.98E+9 CFU/mL
same,optical density (bacterial cell growth),Proteus mirabilis; 0.0097% in urine:TSB,0.98
same,optical density (bacterial cell growth),Proteus mirabilis; 0.0195% in urine:TSB,0.98
same,optical density (bacterial cell growth),Proteus mirabilis; 0.0391% in urine:TSB,0.95
same,optical density (bacterial cell growth),Proteus mirabilis; 0.0785% in urine:TSB,0.98
same,optical density (bacterial cell growth),Proteus mirabilis; 0.156% in urine:TSB,1.00
same,optical density (bacterial cell growth),Proteus mirabilis; 0.313% in urine:TSB,0.96
same,optical density (bacterial cell growth),Proteus mirabilis; 0.625% in urine:TSB,0.99
same,optical density (bacterial cell growth),Proteus mirabilis; 1.25% in urine:TSB,0.98
same,optical density (bacterial cell growth),Proteus mirabilis; 2.5% in urine:TSB,0.97
same,optical density (bacterial cell growth),Proteus mirabilis; 5% in urine:TSB,0.90
same,optical density (bacterial cell growth),Proteus mirabilis; 10% in urine:TSB,0.82
same,effect on the growth of the bacteria,"Proteus mirabilis; heated at least about 7 hours at about 97° C. during synthesis, even at elevated concentrations",little effect on the growth of the bacteria
